Measurements published in ChEMBL document CHEMBL5331051, “Cationic, amphipathic small molecules based on a triazine-piperazine-triazine scaffold as a new class of antimicrobial agents” (Eur J Med Chem, 2022).
≈ marks a conversion by molar mass, not a printed value. Calls of active or inactive are those of the source. No cut-off for these calls is given here.

Experiments:
[1] = test system: Pseudomonas aeruginosa; assay: Additive antibacterial activity against multidrug-resistant Pseudomonas aeruginosa CCARM 2095 strain assessed as bacterial growth inhibition by checkerboard assay; assay type: functional
[2] = test system: Pseudomonas aeruginosa; assay: Bacteriostatic activity against multidrug-resistant Pseudomonas aeruginosa CCARM 2095 measured after 24 hrs by time-kill kinetics assay; assay type: functional, organism-based
[3] = test system: Staphylococcus aureus; assay: Antibacterial activity against methicillin-resistant Staphylococcus aureus CCARM 3090 strain assessed as bacterial growth inhibition measured at 18 to 24 hrs by microdilution assay; assay type: functional; details: time 18-24 hrs
[4] = test system: Pseudomonas aeruginosa; assay: Antibacterial activity against multidrug-resistant Pseudomonas aeruginosa CCARM 2109 strain assessed as bacterial growth inhibition measured at 18 to 24 hrs by microdilution assay; assay type: functional; details: time 18-24 hrs
[5] = test system: Enterococcus faecium; assay: Antibacterial activity against vancomycin-resistant Enterococcus faecium ATCC 51559 strain assessed as bacterial growth inhibition measured at 18 to 24 hrs by microdilution assay; assay type: functional; details: time 18-24 hrs
[6] = test system: Pseudomonas aeruginosa; assay: Antibacterial activity against multidrug-resistant Pseudomonas aeruginosa CCARM 2095 strain assessed as bacterial growth inhibition measured at 18 to 24 hrs by microdilution assay; assay type: functional; details: time 18-24 hrs
[7] = test system: Pseudomonas aeruginosa; assay: Bactericidal activity against multidrug-resistant Pseudomonas aeruginosa CCARM 2095 measured after 24 hrs by time-kill kinetics assay; assay type: functional, organism-based
[8] = test system: Pseudomonas aeruginosa; assay: Synergistic antibacterial activity against multidrug-resistant Pseudomonas aeruginosa CCARM 2095 strain assessed as bacterial growth inhibition by checkerboard assay; assay type: functional
[9] = test system: Staphylococcus aureus; assay: Antibacterial activity against methicillin-resistant Staphylococcus aureus CCARM 3089 strain assessed as bacterial growth inhibition measured at 18 to 24 hrs by microdilution assay; assay type: functional; details: time 18-24 hrs
[10] = test system: Pseudomonas aeruginosa; assay: Antibacterial activity against multidrug-resistant Pseudomonas aeruginosa CCARM 2095 strain assessed as bacterial growth inhibition by checkerboard assay; assay type: functional
[11] = test system: Staphylococcus aureus; assay: Antibacterial activity against methicillin-resistant Staphylococcus aureus CCARM 3095 strain assessed as bacterial growth inhibition measured at 18 to 24 hrs by microdilution assay; assay type: functional; details: time 18-24 hrs
[12] = test system: Pseudomonas aeruginosa; assay: Antibiofilm activity against multidrug-resistant Pseudomonas aeruginosa assessed as inhibition of biofilm formation; assay type: functional
[13] = test system: Lipopolysaccharide (LPS); assay: Displacement of BODIPY-TR-cadaverine from Escherichia coli O111:B4 lipopolysaccharide assessed as increase in fluorescence at 5 ug/ml by fluorescence based assay; details: dose 5.0 µg/ml
[14] = test system: Pseudomonas aeruginosa; assay: Additive antibacterial activity against multidrug-resistant Pseudomonas aeruginosa CCARM 2095 strain assessed as chloramphenicol MIC by checkerboard assay; assay type: functional
[15] = test system: Pseudomonas aeruginosa; assay: Additive antibacterial activity against multidrug-resistant Pseudomonas aeruginosa CCARM 2095 strain assessed as fractional inhibitory concentration in presence of ciprofloxacin by checkerboard assay; assay type: functional
[16] = test system: Cell membrane; assay: Induction of inner membrane permeabilization in Escherichia coli ML-35 assessed as increase in […] at 2 times MIC by ONPG staining based analysis
[17] = test system: Cell membrane; assay: Induction of cell membrane depolarization in Staphylococcus aureus assessed as increase in fluorescence intensity at 2 times MIC by SYTOX green staining based analysis
[18] = test system: Pseudomonas aeruginosa; assay: Additive antibacterial activity against multidrug-resistant Pseudomonas aeruginosa CCARM 2095 strain assessed as fractional inhibitory concentration index in presence of chloramphenicol by checkerboard assay; assay type: functional
[19] = test system: Cell membrane; assay: Induction of cell membrane depolarization in Staphylococcus aureus assessed as fluorescence intensity at 2 to 16 times MIC by DiSC3(5) dye based fluorescence assay; assay type: subcellular
[20] = test system: Staphylococcus aureus; assay: Additive antibacterial activity against methicillin-resistant Staphylococcus aureus CCARM 3089 strain assessed as bacterial growth inhibition in presence of oxacillin by checkerboard assay; assay type: functional
[21] = test system: Lipopolysaccharide (LPS); assay: Binding affinity to Escherichia coli O111:B4 lipopolysaccharide assessed as suppression of FTIC labeled LPS binding to mouse RAW264.7 cells at 20 ug/ml pretreated with LPS followed by compound addition by flow cytometer assay (reference value: 67.4%); assay type: cell-based; details: dose 20.0 µg/ml
[22] = test system: Pseudomonas aeruginosa; assay: Additive antibacterial activity against multidrug-resistant Pseudomonas aeruginosa CCARM 2095 strain assessed as fractional inhibitory concentration index in presence of oxacillin by checkerboard assay; assay type: functional
[23] = test system: Pseudomonas aeruginosa; assay: Antibiofilm activity against multidrug-resistant Pseudomonas aeruginosa assessed as biofilm eradication; assay type: functional
[24] = test system: Pseudomonas aeruginosa; assay: Additive antibacterial activity against multidrug-resistant Pseudomonas aeruginosa CCARM 2095 strain assessed as chloramphenicol fractional inhibitory concentration by checkerboard assay; assay type: functional
[25] = test system: Lipopolysaccharide (LPS); assay: Binding affinity to Escherichia coli O111:B4 lipopolysaccharide assessed as suppression of FTIC labeled LPS binding to mouse RAW264.7 cells at 20 ug/ml pretreated LPS with cells for 1 hr followed by compound addition measured after 1 hr by flow cytometer assay (reference value: 48.12%); assay type: cell-based; details: dose 20.0 µg/ml
[26] = test system: Staphylococcus aureus; assay: Additive antibacterial activity against methicillin-resistant Staphylococcus aureus CCARM 3089 strain assessed as bacterial growth inhibition in presence of ciprofloxacin by checkerboard assay; assay type: functional
[27] = test system: Staphylococcus aureus; assay: Additive antibacterial activity against multidrug-resistant Staphylococcus aureus CCARM 3089 strain assessed as fractional inhibitory concentration index in presence of chloramphenicol by checkerboard assay; assay type: functional
[28] = test system: Pseudomonas aeruginosa; assay: Additive antibacterial activity against multidrug-resistant Pseudomonas aeruginosa CCARM 2095 strain assessed as oxacillin fractional inhibitory concentration by checkerboard assay; assay type: functional
[29] = test system: Pseudomonas aeruginosa; assay: Additive antibacterial activity against multidrug-resistant Pseudomonas aeruginosa CCARM 2095 strain assessed as Oxacillin MIC by checkerboard assay; assay type: functional
[30] = test system: Pseudomonas aeruginosa; assay: Additive antibacterial activity against multidrug-resistant Pseudomonas aeruginosa CCARM 2095 strain assessed as bacterial growth inhibition in presence of chloramphenicol by checkerboard assay; assay type: functional
[31] = test system: Staphylococcus aureus; assay: Additive antibacterial activity against methicillin-resistant Staphylococcus aureus CCARM 3089 strain assessed as oxacillin MIC by checkerboard assay; assay type: functional
[32] = test system: Pseudomonas aeruginosa; assay: Additive antibacterial activity against multidrug-resistant Pseudomonas aeruginosa CCARM 2095 strain assessed as ciprofloxacin MIC by checkerboard assay; assay type: functional
[33] = test system: Pseudomonas aeruginosa; assay: Additive antibacterial activity against multidrug-resistant Pseudomonas aeruginosa CCARM 2095 strain assessed as bacterial growth inhibition in presence of ciprofloxacin by checkerboard assay; assay type: functional
[34] = test system: Cell membrane; assay: Induction of outer membrane permeabilization in Escherichia coli KCTC 1682 assessed as increase in fluorescence intensity at 2 to 8 ug/ml by NPN staining based analysis; details: dose 2-8 µg/ml
[35] = test system: Pseudomonas aeruginosa; assay: Additive antibacterial activity against multidrug-resistant Pseudomonas aeruginosa CCARM 2095 strain assessed as ciprofloxacin fractional inhibitory concentration by checkerboard assay; assay type: functional
[36] = test system: Staphylococcus aureus; assay: Additive antibacterial activity against methicillin-resistant Staphylococcus aureus CCARM 3089 strain assessed as chloramphenicol MIC by checkerboard assay; assay type: functional
[37] = test system: Staphylococcus aureus; assay: Additive antibacterial activity against methicillin-resistant Staphylococcus aureus CCARM 3089 strain assessed as ciprofloxacin MIC by checkerboard assay; assay type: functional
[38] = test system: Cell membrane; assay: Induction of cell membrane depolarization in Staphylococcus aureus assessed as increase in fluorescence intensity at 2 times MIC by DiSC3(5) dye based fluorescence assay
[39] = test system: Pseudomonas aeruginosa; assay: Additive antibacterial activity against multidrug-resistant Pseudomonas aeruginosa CCARM 2095 strain assessed as fractional inhibitory concentration in presence of chloramphenicol by checkerboard assay; assay type: functional
[40] = test system: Staphylococcus aureus; assay: Additive antibacterial activity against methicillin-resistant Staphylococcus aureus CCARM 3089 strain assessed as bacterial growth inhibition in presence of chloramphenicol by checkerboard assay; assay type: functional
[41] = test system: Pseudomonas aeruginosa; assay: Additive antibacterial activity against multidrug-resistant Pseudomonas aeruginosa CCARM 2095 strain assessed as bacterial growth inhibition in presence of oxacillin by checkerboard assay; assay type: functional
[42] = test system: Staphylococcus aureus; assay: Antibacterial activity against methicillin-resistant Staphylococcus aureus CCARM 3089 strain assessed as bacterial growth inhibition by checkerboard assay; assay type: functional
[43] = test system: Pseudomonas aeruginosa; assay: Additive antibacterial activity against multidrug-resistant Pseudomonas aeruginosa CCARM 2095 strain assessed as fractional inhibitory concentration index in presence of ciprofloxacin by checkerboard assay; assay type: functional
[44] = test system: Pseudomonas aeruginosa; assay: Additive antibacterial activity against multidrug-resistant Pseudomonas aeruginosa CCARM 2095 strain assessed as fractional inhibitory concentration in presence of oxacillin by checkerboard assay; assay type: functional
[45] = test system: Staphylococcus aureus; assay: Additive antibacterial activity against multidrug-resistant Staphylococcus aureus CCARM 3089 strain assessed as fractional inhibitory concentration index in presence of ciprofloxacin by checkerboard assay; assay type: functional

`O=C(N[C@H](CO)[C@H](O)c1ccc([N+](=O)[O-])cc1)C(Cl)Cl` [CHLORAMPHENICOL] was tested, and the MIC [1] was 1020 µg/mL, the Activity [2] was “inactive” and the MIC [3] was over 6.33 mM. The MIC [4] was over 6.33 mM, the MIC [5] was 1.58 mM (≈ 511 µg/mL) and the MIC [6] was 6.33 mM (≈ 2040 µg/mL). For the same compound, the Activity [7] was “inactive”, the MIC [8] was 1020 µg/mL and the MIC [9] was 3.16 mM (≈ 1020 µg/mL). The MIC [10] was 1020 µg/mL and the MIC [11] was over 6.33 mM.

With `CC[C@H](C)[C@H](NC(=O)[C@H](CCCCN)NC(=O)[C@H](CCC(=O)O)NC(=O)[C@H](CCCCN)NC(=O)[C@H](CO)NC(=O)[C@H](CCCCN)NC(=O)[C@H](CCCNC(=N)N)NC(=O)[C@H](Cc1ccccc1)NC(=O)[C@H](Cc1ccccc1)NC(=O)[C@H](CC(=O)O)NC(=O)CNC(=O)[C@H](CC(C)C)NC(=O)[C@@H](N)CC(C)C)C(=O)NCC(=O)N[C@@H](CCCCN)C(=O)N[C@@H](CCC(=O)O)C(=O)N[C@@H](Cc1ccccc1)C(=O)N[C@@H](CCCCN)C(=O)N[C@@H](CCCNC(=N)N)C(=O)N[C@H](C(=O)N[C@H](C(=O)N[C@@H](CCC(N)=O)C(=O)N[C@@H](CCCNC(=N)N)C(=O)N[C@H](C(=O)N[C@@H](CCCCN)C(=O)N[C@@H](CC(=O)O)C(=O)N[C@@H](Cc1ccccc1)C(=O)N[C@@H](CC(C)C)C(=O)N[C@@H](CCCNC(=N)N)C(=O)N[C@@H](CC(N)=O)C(=O)N[C@@H](CC(C)C)C(=O)N[C@H](C(=O)N1CCC[C@H]1C(=O)N[C@@H](CCCNC(=N)N)C(=O)N[C@H](C(=O)N[C@@H](CCC(=O)O)C(=O)N[C@@H](CO)C(=O)O)[C@@H](C)O)C(C)C)[C@@H](C)CC)C(C)C)[C@@H](C)CC` [CATHELICIDIN] the MBEC50 [12] was 14.2 µM, the MBEC90 [12] was 28.5 µM and the MBIC [12] was over 7 µM. For the same compound, the MBIC50 [12] was 3.6 µM, the Activity [13] was “inactive” and the MIC [14] was 512 µg/mL. For the same compound, the MIC [1] was 32 µg/mL, the FIC [15] was 0.5 and the Activity [16] was “Active”. The Activity [17] was “Active”, the “fractional inhibitory concentration index (FICI)” value [18] was 1 and the Activity [19] was “inactive”. For the same compound, the MIC [20] was 32 µg/mL, the Flu intensity [21] was 10.4% and the “fractional inhibitory concentration index (FICI)” value [22] was 0.75. The MBEC50 [23] was 14.2 µM, the MBEC90 [23] was 28.5 µM and the FIC [24] was 0.5. The Flu intensity [25] was 18.3%, the MIC [26] was 32 µg/mL and the “fractional inhibitory concentration index (FICI)” value [27] was 0.675. It also gave an FIC [28] of 0.5, an MIC [29] of 512 µg/mL and an MIC [30] of 16 µg/mL. For the same compound, the MIC [31] was 256 µg/mL, the MIC [32] was 256 µg/mL and the MIC [33] was 16 µg/mL. For the same compound, the Activity [34] was “Active”, the FIC [35] was 0.25 and the MIC [36] was 64 µg/mL. The MIC [37] was 128 µg/mL, the Activity [38] was “Active” and the FIC [39] was 0.5. The MIC [40] was 32 µg/mL, the MIC [41] was 8 µg/mL and the MIC [42] was 64 µg/mL. The “fractional inhibitory concentration index (FICI)” value [43] was 0.75, the FIC [44] was 0.25 and the “fractional inhibitory concentration index (FICI)” value [45] was 0.75.
